Source: the supplement of paper PMC10307832

How the values were obtained:
Experiment in all cases: relative viability (nuclei count vs DMSO), 5 days (fraction); higher = more cells survive
[1] = tested on: BEN
In short: (§1)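 Each reported value is a median over duplicate plates. It expresses relative viability: treated-well nuclei count divided by vehicle-well nuclei count. Lung cancer cell lines in 1536-well plates were dosed by pin tool a day after seeding, alone with one drug or with a fixed anchor-drug dose plus five library-drug doses (not always all listed) in √10 steps, and nuclei were counted after 5 days.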

[2] = tested on: NCI-H1915
In short: as §1

[3] = tested on: NCI-H2405
In short: as §1

[4] = tested on: EMC-BAC-2
In short: as §1

[5] = tested on: NCI-H1563
In short: as §1

[6] = tested on: NCI-H647
In short: as §1

[7] = tested on: NCI-H1993
In short: as §1

[8] = tested on: HCC-15
In short: as §1

[9] = tested on: COR-L23
In short: as §1

[10] = tested on: HCC-78
In short: as §1

[11] = tested on: PC-14
In short: as §1

[12] = tested on: 201T
In short: as §1

[13] = tested on: HOP-62
In short: as §1

[14] = tested on: HCC-366
In short: as §1

[15] = tested on: NCI-H460
In short: as §1

[16] = tested on: EKVX
In short: as §1

[17] = tested on: COR-L 105
In short: as §1

[18] = tested on: NCI-H1734
In short: as §1

[19] = tested on: A-427
In short: as §1

[20] = tested on: NCI-H661
In short: as §1

In the case of `Cc1csc(=NC2CCCCC2)n1/N=C/c1ccc(O)c(O)c1O` [MIM1] + CC(C)C[C@H](NC(=O)[C@H](Cc1ccccc1)NC(=O)c1cnccn1)B(O)O [Bortezomib] (partner 0.002 µM), the relative viability ([1]; first compound 0.2 µM) is reported as 0.719, the relative viability ([1]; first compound 0.6325 µM) is reported as 1.01 and the relative viability ([1]; first compound 2 µM) is reported as 0.929. The relative viability ([1]; first compound 6.325 µM) was 0.735, the relative viability ([1]; first compound 20 µM) was 0.183 and the relative viability ([2]; first compound 0.2 µM) was 0.989. The relative viability ([2]; first compound 0.6325 µM) was 0.857, the relative viability ([2]; first compound 2 µM) was 0.898 and the relative viability ([2]; first compound 6.325 µM) was 0.461. The relative viability ([2]; first compound 20 µM) was 0.725, the relative viability ([3]; first compound 0.2 µM) was 0.959 and the relative viability ([3]; first compound 0.6325 µM) was 1.01. For the same molecule, the relative viability ([3]; first compound 2 µM) was 0.961, the relative viability ([3]; first compound 6.325 µM) was 0.788 and the relative viability ([3]; first compound 20 µM) was 0.358. It also gave a relative viability ([4]; first compound 0.2 µM) of 1.08, a relative viability ([4]; first compound 0.6325 µM) of 0.822 and a relative viability ([4]; first compound 2 µM) of 1.08. The relative viability ([4]; first compound 6.325 µM) was 0.996, the relative viability ([4]; first compound 20 µM) was 0.259 and the relative viability ([5]; first compound 0.2 µM) was 0.894. It also gave a relative viability ([5]; first compound 0.6325 µM) of 0.96, a relative viability ([5]; first compound 2 µM) of 0.744 and a relative viability ([5]; first compound 6.325 µM) of 0.563. The relative viability ([5]; first compound 20 µM) was 0.465, the relative viability ([6]; first compound 0.2 µM) was 1.05 and the relative viability ([6]; first compound 0.6325 µM) was 0.878. It also gave a relative viability ([6]; first compound 2 µM) of 0.98, a relative viability ([6]; first compound 6.325 µM) of 0.769 and a relative viability ([6]; first compound 20 µM) of 0.237. For the same molecule, the relative viability ([7]; first compound 0.2 µM) was 1.18, the relative viability ([7]; first compound 0.6325 µM) was 1.03 and the relative viability ([7]; first compound 2 µM) was 1.11. It also gave a relative viability ([7]; first compound 6.325 µM) of 0.774, a relative viability ([7]; first compound 20 µM) of 0.473 and a relative viability ([8]; first compound 0.2 µM) of 1.05. The relative viability ([8]; first compound 0.6325 µM) was 0.911, the relative viability ([8]; first compound 2 µM) was 1.06 and the relative viability ([8]; first compound 6.325 µM) was 0.36. For the same molecule, the relative viability ([8]; first compound 20 µM) was 0.267, the relative viability ([9]; first compound 0.2 µM) was 1.02 and the relative viability ([9]; first compound 0.6325 µM) was 1.04. The relative viability ([9]; first compound 2 µM) was 0.969, the relative viability ([9]; first compound 6.325 µM) was 0.659 and the relative viability ([9]; first compound 20 µM) was 0.418. It also gave a relative viability ([10]; first compound 0.2 µM) of 0.491, a relative viability ([10]; first compound 0.6325 µM) of 0.555 and a relative viability ([10]; first compound 2 µM) of 0.559. For the same molecule, the relative viability ([10]; first compound 6.325 µM) was 0.418, the relative viability ([10]; first compound 20 µM) was 0.4 and the relative viability ([11]; first compound 0.2 µM) was 0.751. For the same molecule, the relative viability ([11]; first compound 0.6325 µM) was 0.882, the relative viability ([11]; first compound 2 µM) was 0.779 and the relative viability ([11]; first compound 6.325 µM) was 0.692. It also gave a relative viability ([11]; first compound 20 µM) of 0.192, a relative viability ([12]; first compound 0.2 µM) of 1.09 and a relative viability ([12]; first compound 0.6325 µM) of 1.08. It also gave a relative viability ([12]; first compound 2 µM) of 1.08, a relative viability ([12]; first compound 6.325 µM) of 0.779 and a relative viability ([12]; first compound 20 µM) of 0.82. For the same molecule, the relative viability ([13]; first compound 0.2 µM) was 1.04, the relative viability ([13]; first compound 0.6325 µM) was 0.611 and the relative viability ([13]; first compound 2 µM) was 0.746. It also gave a relative viability ([13]; first compound 6.325 µM) of 0.494, a relative viability ([13]; first compound 20 µM) of 0.116 and a relative viability ([14]; first compound 0.2 µM) of 1.02. For the same molecule, the relative viability ([14]; first compound 0.6325 µM) was 0.994, the relative viability ([14]; first compound 2 µM) was 0.793 and the relative viability ([14]; first compound 6.325 µM) was 0.998. For the same molecule, the relative viability ([14]; first compound 20 µM) was 0.0323, the relative viability ([15]; first compound 0.2 µM) was 1.12 and the relative viability ([15]; first compound 0.6325 µM) was 1.26. It also gave a relative viability ([15]; first compound 2 µM) of 0.604, a relative viability ([15]; first compound 6.325 µM) of 0.467 and a relative viability ([15]; first compound 20 µM) of 0.0328. The relative viability ([16]; first compound 0.2 µM) was 1.03, the relative viability ([16]; first compound 0.6325 µM) was 1.16 and the relative viability ([16]; first compound 2 µM) was 0.991. It also gave a relative viability ([16]; first compound 6.325 µM) of 0.601, a relative viability ([16]; first compound 20 µM) of 0.33 and a relative viability ([17]; first compound 0.2 µM) of 0.789. The relative viability ([17]; first compound 0.6325 µM) was 0.82, the relative viability ([17]; first compound 2 µM) was 0.719 and the relative viability ([17]; first compound 6.325 µM) was 0.54. It also gave a relative viability ([17]; first compound 20 µM) of 0.278, a relative viability ([18]; first compound 0.2 µM) of 1.12 and a relative viability ([18]; first compound 0.6325 µM) of 0.799. For the same molecule, the relative viability ([18]; first compound 2 µM) was 0.868, the relative viability ([18]; first compound 6.325 µM) was 0.404 and the relative viability ([18]; first compound 20 µM) was 0.159. For the same molecule, the relative viability ([19]; first compound 0.2 µM) was 0.975, the relative viability ([19]; first compound 0.6325 µM) was 0.865 and the relative viability ([19]; first compound 2 µM) was 0.972. The relative viability ([19]; first compound 6.325 µM) was 0.847, the relative viability ([19]; first compound 20 µM) was 0.234 and the relative viability ([20]; first compound 0.2 µM) was 0.843. The relative viability ([20]; first compound 0.6325 µM) was 0.861, the relative viability ([20]; first compound 2 µM) was 0.648 and the relative viability ([20]; first compound 6.325 µM) was 0.453. It also gave a relative viability ([20]; first compound 20 µM) of 0.221.
